pIC50: −log10 of the molar value. Converted amounts (≈) assume the structure as drawn. Like-named read-outs stand apart in the source and are kept apart here.
Tests used:
[1] = test system: tetracycline resistant E. coli; assay type: cell-based, Escherichia coli; conditions: for MIC: single agent, Table 5; for MIC (μM) of amphiphile alone: Tables 6 and 7
Text: (§1) Certain aspects are drawn to a method for increasing or enhancing the antimicrobial activity of an antimicrobial agent. As used herein, the “antimicrobial activity” of an antimicrobial agent is defined as the property of a substance to inhibit the growth and reproduction of a microbial organism or to kill it. Common terms generally applied to bacteria are bacteriostatic (stops growth) and bactericidal (kills bacteria). Depending on the concentrations applied, microbial growth can be slowed or stopped in comparison to concurrent experiments conducted in the absence of an antimicrobial agent. Depending on the concentrations applied, additional microbe death can occur in comparison to concurrent experiments conducted in the absence of an antimicrobial agent. […] The MIC is the lowest concentration of any agent having antimicrobial activity that inhibits the growth of a microorganism as judged by visual inspection. MIC can be determined by inoculating media with the organism and adding the antimicrobial agent diluted successively in half.
(§2) Among the organisms studied are several strains of the bacterium E. coli.
N,N′-Dibenzyl-4,13-diaza-18-crown-6 is referred to in the table as dibenzyldiaza-18-crown-6.
(§3) Minimal Inhibitory Concentration (MIC) Procedure. […] Prepare initial concentration of all the compounds required. • 5. […] Vortex each test tube for 2-3 seconds. • 11.

E. coli [2] = conditions: Journal of the American Chemical Society 2002, 124, 9022-3, cited from earlier work
E. coli [3] = experiment: MIC determination, E. coli (Table 1); assay type: cell-based, Escherichia coli; conditions: single agent
Text: as §1, §2, §3

K-12 E. coli [4] = experiment: MIC of single agents against K-12 E. coli
K-12 E. coli [5] = experiment: Combination of amphiphile and antibiotic against K-12 E. coli
DH5α E. coli [6] = experiment: Combination of lariat ether and antibiotic against DH5α E. coli; conditions: 0.4 vol-% DMSO
[7] = test system: tetracycline resistant E. coli
B. stubtilis = experiment: MIC determination, B. subtilis (Table 1); assay type: cell-based, Bacillus subtilis; conditions: single agent
Text: (§4) Certain aspects are drawn to a method for increasing or enhancing the antimicrobial activity of an antimicrobial agent. As used herein, the “antimicrobial activity” of an antimicrobial agent is defined as the property of a substance to inhibit the growth and reproduction of a microbial organism or to kill it. Common terms generally applied to bacteria are bacteriostatic (stops growth) and bactericidal (kills bacteria). Depending on the concentrations applied, microbial growth can be slowed or stopped in comparison to concurrent experiments conducted in the absence of an antimicrobial agent. Depending on the concentrations applied, additional microbe death can occur in comparison to concurrent experiments conducted in the absence of an antimicrobial agent. The results of minimum inhibitory concentration (MIC) evaluations and growth curves are presented herein and the conditions are specified. The MIC is the lowest concentration of any agent having antimicrobial activity that inhibits the growth of a microorganism as judged by visual inspection. MIC can be determined by inoculating media with the organism and adding the antimicrobial agent diluted successively in half. […] Reference herein to increasing or enhancing activity, efficacy, potency, and the like are used interchangeably to mean that when the synthetic amphiphile is present, the ability of the antimicrobial agent to inhibit the growth of or to kill an organism will be manifested at a concentration lower than would be required to achieve the same results in the absence of said synthetic amphiphile.
(§5) Among the organisms studied are several strains of the bacterium E. coli. […] Experiments were conducted to determine the MIC values for the synthetic amphiphiles known as lariat ethers according to the procedures described in Antimicrobial M07-A9: Methods for Dilution Antimicrobial Susceptibility Tests for Bacteria that Grow Aerobically; Clinical and Laboratory Standards Institute, 2012; Vol. 32, 67 pp. MIC values so determined for several lariat ethers and for several antibiotics are shown in Table 1.

S. cerevisiae = experiment: MIC determination, S. cerevisiae (Table 1); assay type: cell-based, Saccharomyces cerevisiae; conditions: single agent
Text: as §4, §5

DH5α E. coli [8] = experiment: MIC of single agents against DH5α E. coli; assay type: cell-based, Escherichia coli; conditions: for MIC to DH5α E. coli: single agent, values of the running text
Text: as §1, §2, §3

HEK-293 cells = experiment: MTT assay of toxicity to HEK-293 cells
Method: The toxicity of C6. C8, C10. C11 and C14 lariat ethers to HEK-293 cells was determined by using an MTT assay. […] The abscissa is a logarithmic scale for the concentrations ranging from 1 μM to 1000 μM (1 mM) used in the experiment. The ordinate represents percent survival of HEK-293 cells.
Growth medium containing DMEM with high glucose (ATCC). 10% fetal bovine serum (FBS: Sigma-Aldrich) and 10 μg/mL of blasticidin (Thermo-Fischer) was prepared. HEK 293 cells were thawed out from cryo-preserved samples in 10 mL growth media, centrifuged at 500 rpm for 10 minutes to remove preservative. The cells were then resuspended in fresh growth medium and cultured using a T-75 flask (Thermo-Fischer) at 37° C. and 5% CO2. Cells were monitored for confluence and growth medium was replaced every 48 h, until cells were placed onto a 96-well plate for toxicity studies.
After reaching 80-90% confluence, cells were trypsinized and suspended in media containing DMEM and 10% FBS (no antibiotics). The cells were counted on a hemacytometer and plated at a density of 20,000 cells per well in a 96-well plate and grown for 24 hours to reach 60-70% confluence. DMSO stocks of C6, C8, C10, C11 and C14 diaza-18-crown-6 lariat ethers were prepared at […] and diluted 1:10 to get working concentrations of 20 mM, 2 mM, and 0.2 mM. Each stock was further diluted […] into DMEM supplemented with 10% FBS to get final concentrations of 1 mM, 0.1 mM, 0.01 mM (10 μM) and 0.001 mM (1 μM). The original media was then removed from the cells and replaced with 200 μL media containing the desired concentration of compound. Three wells were used for each concentration providing experimental triplicates. […] The absorbance was measured at 570 nm and nonspecific absorbance was corrected at 650 nm, using SpectraMax340 micro plate reader.
The experiment was performed in triplicate and the average of percent survival of three experiments was determined. […] The lethal dose 50 (LD50) for each compound was calculated by using the equation for a logarithmic regression curve.

DH5α E. coli [9] = experiment: Inhibitory concentration (IC50) to DH5α E. coli cells (FIG. 4); assay type: cell-based, Escherichia coli
Text: Two commonly used abbreviations are LD50 and IC50. The former is the concentration of an agent that comprises a lethal dose to 50% of the organism under study. The latter is the concentration of agent that inhibits growth of 50% of the organism under study. […] The abscissa represents the number of (CH2) groups in spacer chains. The ordinate is logarithmic and reflects the concentrations (in μM) of the various lariat ethers used.

Compound: c1ccc(CN2CCOCCOCCN(CCCCCCCCCCCCN3CCOCCOCCN(CCCCCCCCCCCCN4CCOCCOCCN(Cc5ccccc5)CCOCCOCC4)CCOCCOCC3)CCOCCOCC2)cc1 [C12 hydraphile]
- MIC [1]: 5 ± 0.5 µM (≈ 6.5 µg/mL)
- MIC (μM) of amphiphile alone ([1]; tetracycline resistant E. coli): 5 µM
- toxicity to E. coli (E. coli [2]; listed as C12 benzyl hydraphile): killed E. coli
- toxicity to E. coli (E. coli [2]; listed as benzyl C12 hydraphile): killed the bacteria

Compound: c1ccc(CN2CCOCCOCCN(CCCCCCCCCCCCCCN3CCOCCOCCN(CCCCCCCCCCCCCCN4CCOCCOCCN(Cc5ccccc5)CCOCCOCC4)CCOCCOCC3)CCOCCOCC2)cc1 [C14 hydraphile]
- MIC [1]: 2 ± 0.125 µM (≈ 2.71 µg/mL)
- MIC (μM) of amphiphile alone ([1]; tetracycline resistant E. coli): 2 µM

Compound: CC[C@H]1OC(=O)[C@H](C)[C@@H](O[C@H]2C[C@@](C)(OC)[C@@H](O)[C@H](C)O2)[C@H](C)[C@@H](O[C@@H]2O[C@H](C)C[C@H](N(C)C)[C@H]2O)[C@](C)(O)C[C@@H](C)C(=O)[C@H](C)[C@@H](O)[C@]1(C)O [erythromycin, reference compound]
- MIC (E. coli [3]; Escherichia coli): > 400 µM

Compound: CO[C@H]1/C=C/O[C@@]2(C)Oc3c(C)c(O)c4c(O)c(c(/C=N/N5CCN(C)CC5)c(O)c4c3C2=O)NC(=O)/C(C)=C\C=C\[C@H](C)[C@H](O)[C@@H](C)[C@@H](O)[C@@H](C)[C@H](OC(C)=O)[C@@H]1C [rifampicin, reference compound]
- MIC (μM) of antibiotic alone (K-12 E. coli [4]): 20 µM
- Antibiotic Used (μM) in combination (K-12 E. coli [5]; Rifampicin with 6 μM C11 lariat ether): 10 µM
- Antibiotic Used (μM) in combination (DH5α E. coli [6]; rifampicin with 8 μM n-C11 lariat ether): 15 µM
- Antibiotic Used (μM) in combination (DH5α E. coli [6]; rifampicin with 12 μM n-C11 lariat ether): 6 µM
- Antibiotic Used (μM) in combination (DH5α E. coli [6]; rifampicin with 16 μM n-C11 lariat ether): 6 µM
- Antibiotic Used (μM) in combination (DH5α E. coli [6]; rifampicin with 18 μM n-C11 lariat ether): 3 µM

Compound: CN(C)[C@@H]1C(O)=C(C(N)=O)C(=O)[C@@]2(O)C(O)=C3C(=O)c4c(O)cccc4[C@@](C)(O)[C@H]3C[C@@H]12 [tetracycline, reference compound]
- MIC (μM) of antibiotic alone ([1]; tetracycline resistant E. coli): ~900 µM
- Antibiotic Used (μM) in combination ([7]; Tetracycline with 8 μM C11 lariat ether): 175 µM
- Antibiotic Used (μM) in combination ([7]; Tetracycline with 12 μM C11 lariat ether): 87 µM
- Antibiotic Used (μM) in combination ([7]; Tetracycline with 16 μM C11 lariat ether): 87 µM
- Antibiotic Used (μM) in combination ([7]; Tetracycline with 18 μM C11 lariat ether): 87 µM
- MIC (μM) of antibiotic alone (K-12 E. coli [4]): 6 µM
- Antibiotic Used (μM) in combination (K-12 E. coli [5]; Tetracycline with 6 μM C11 lariat ether): 2.5 µM
- Antibiotic Used (μM) in combination (DH5α E. coli [6]; tetracycline with 4 μM n-C11 lariat ether): 3 µM
- Antibiotic Used (μM) in combination (DH5α E. coli [6]; tetracycline with 12 μM n-C11 lariat ether): 1 µM
- Antibiotic Used (μM) in combination (DH5α E. coli [6]; tetracycline with 16 μM n-C11 lariat ether): 0.25 µM
- Antibiotic Used (μM) in combination (DH5α E. coli [6]; tetracycline with 18 μM n-C11 lariat ether): 1.5 µM

Compound: NC[C@H]1O[C@H](O[C@H]2[C@H](O)[C@@H](O[C@H]3O[C@H](CO)[C@@H](O)[C@H](N)[C@H]3O)[C@H](N)C[C@@H]2N)[C@H](N)C[C@@H]1O [tobramycin, reference compound]
- MIC (E. coli [3]; Escherichia coli): 15 µM (≈ 7.01 µg/mL)

Compound: N,N′-di-n-decyl-4,13-diaza-18-crown-6 [C10 lariat ether]
- MIC (E. coli [3]): 11 µM
- MIC (μM) B. stubtilis (B. stubtilis): 2.8 µM
- MIC (μM) S. cerevisiae (S. cerevisiae): 2.8 µM
- MIC to DH5α E. coli (DH5α E. coli [8]): 12 µM
- MIC [1]: 16 µM
- MIC (μM) of amphiphile alone ([1]; tetracycline resistant E. coli): 16 µM
- toxicity to HEK-293, rank among lariat ethers (HEK-293 cells; C6 to C14 lariat ethers compared): highest toxicity
- MIC (μM) of amphiphile alone (K-12 E. coli [4]): 12 µM

Compound: N,N′-di-n-dodecyl-4,13-diaza-18-crown-6 [C12 lariat ether]
- MIC (E. coli [3]): >300 µM
- MIC (μM) B. stubtilis (B. stubtilis): 2.5 µM
- MIC (μM) S. cerevisiae (S. cerevisiae): 2.5 µM
- toxicity to DH5α E. coli cells (DH5α E. coli [8]; previous studies): did not show toxicity
- MIC (μM) of amphiphile alone ([1]; tetracycline resistant E. coli): >512 µM
- MIC (μM) of amphiphile alone (K-12 E. coli [4]): >512 µM

Compound: N,N′-di-n-octyl-4,13-diaza-18-crown-6 [C8 lariat ether]
- MIC (E. coli [3]): 120 µM
- MIC (μM) B. stubtilis (B. stubtilis): 105 µM
- MIC (μM) S. cerevisiae (S. cerevisiae): 25 µM
- MIC (μM) of lariat ether alone (DH5α E. coli [8]; DH5α E. coli, Tables 2 and 3): >120 µM
- MIC to DH5α E. coli (DH5α E. coli [8]): > 240 µM
- MIC to DH5α E. coli (DH5α E. coli [8]; listed as C8 Lariat): 120 µM
- MIC [1]: 120 µM
- MIC (μM) of amphiphile alone ([1]; tetracycline resistant E. coli): 120 µM
- LD50 to HEK-293 (HEK-293 cells): 33 µM
- pIC50 (DH5α E. coli [9]; DH5α E. coli, FIG. 4): 3.82
- MIC (μM) of amphiphile alone (K-12 E. coli [4]): 300 µM

Compound: N,N′-di-n-tetradecyl-4,13-diaza-18-crown-6 [C14 lariat ether]
- MIC (E. coli [3]): >300 µM
- MIC (μM) B. stubtilis (B. stubtilis): >300 µM
- MIC (μM) S. cerevisiae (S. cerevisiae): >300 µM
- activity against E. coli (DH5α E. coli [9]; at 180 μM): inactive
